# Target: AICARFT (Homo sapiens, UniProt P31939)
# Assay: AICARFT enzyme assay (LC-MS of IMP and ZMP)
# Type: biochemical
# Set-up: made in house; host or cells: E. coli BL21(DE3)
# Conditions: for IC50: Mean ± SEM, 25 μM ZMP, 100 μM 10-F-THFA, 3 nM ATIC enzyme, 1 hour at room temperature; for AICARFT inhibition in enzyme assay (in words): summary of Table 15
# Description: Human AICARFT (NCBI accession number: NM_004044.6) cDNA is purchased from Openbiosystem Co. (Cat# MHS1011-62310, Clone ID: 4300570, accession: BC008879). The nucleotide sequence encoding full-length human AICARFT is inserted into pET21d (Novagen) vector with an N-terminal HIS tag. Bacterial BL21(DE3) (Novagen) is used as an expression host, and the induction of protein expression is carried out in 2×TY media with 1 mM IPTG at 18° C. overnight. Cell pellets are stored at −80° C. for subsequent protein purification. Protein purification is conducted at 4° C. Frozen cell pellets are lysed by incubation with stirring in 50 mL cold lysis buffer (50 mM Tris-HCl, pH 7.5, 300 mM NaCl, 10% glycerol, 0.1% Triton X-100, 0.5 mg/mL lysozyme, 5 U/mL benzonase, 1 mM DTT, 10 mM imidazole, and Roche complete EDTA-free protease inhibitor) per liter cell pellet and sonication. Cell lysates are clarified by centrifugation in a Bechman JA-18 rotor for 45 min at 16,500 rpm. The supernatant is incubated with Ni-NTA agarose resin (Qiagen) for 3 hours, followed by an initial batch wash with 10 resin volume of buffer A (50 mM Tris-HCl, pH 7.5, 300 mM NaCl, 10% glycerol, 1 mM DTT, 10 mM imidazole) containing 0.1% Triton X-100. The resin is then packed onto a column and washed with buffer A. The HIS-tagged AICARFT protein is eluted with 10-500 mM imidazole gradient in buffer A. Pooled HIS-AICARFT containing fractions are concentrated, loaded onto a HiLoad 26/600 Superdex 200 column (GE Healthcare Biosciences), and eluted with storage buffer (50 mM Tris-HCl, pH7.5, 150 mM NaCl, 1 mM DTT, 10% Glycerol). Fractions containing HIS-AICARFT are pooled and protein concentration determined by the Bradford assay using BSA as standard. The protein is aliquoted and stored at −80° C.
# One of the substrates of the enzyme reaction, 10-formyltetrahydrofolate (10-F-THFA), has limited chemical stability and is therefore synthesized on the same day that the ATIC enzyme assay is performed. The general synthetic route is described in P. Rowe, Methods Enzymol., 18, 733-735, (1971) and J. Rabinowitz, Methods Enzymol., 6, 814-815, (1963). The first step in this synthesis is the conversion of folinic acid (Sigma CAS 1492-18-8) to 5,10-methenyltetrahydrofolic acid (5,10-M-THFA). This conversion typically takes place the day before the enzyme assay is performed, but can be performed up to 1 week earlier and stored at room temperature. To folinic acid (81.6 mg) is added β-mercaptoethanol (2 mL), and 37% concentrated HCl (80 μL), is added. This reaction incubates a minimum of 3 hours at room temperature, with occasional mixing. The color changes from clear to yellow visually, and the complete conversion of folinic acid to 5,10-M-THFA is monitored by spectral analysis using a quartz cuvette. The UV absorption will change from 266 nm to 356 nm during this step. […] On the morning of the assay, the 80 mM 5,10-M-THFA is diluted to 1.6 mM in 40 μM ammonium bicarbonate (made fresh that day). This reaction incubates 3-5 hours at room temperature. The color changes from yellow to clear visually, and the conversion of 5,10-M-THFA to 10-F-THFA is monitored by spectral analysis using a quartz cuvette. The UV absorption will change from 356 nm to 258 nm during this step. […] Test compounds are prepared in DMSO to make a 10 mM stock solution. The stock solution is serially diluted 3-fold in DMSO to obtain a ten-point dilution curve with final compound concentrations ranging from 100 μM to 5 nM. The final DMSO concentration in the assay is 5%.
# To each well of a 384-well polypropylene assay plate (NUNC 264573), […] of DMSO (control wells) or compound in DMSO and 9 μL of 55.56 μM ZMP (Sigma-Aldrich CAS 3031-94-5) in water are added. Then, 10 μL of 200 μM 10-F-THFA and 6 nM ATIC enzyme in 40 μM ammonium bicarbonate is added. […] The assay is incubated for 1 hour at room temperature, after which 40 μL of ACN is added to stop the reaction.
# Chain of AICARFT (P31939 whole entry): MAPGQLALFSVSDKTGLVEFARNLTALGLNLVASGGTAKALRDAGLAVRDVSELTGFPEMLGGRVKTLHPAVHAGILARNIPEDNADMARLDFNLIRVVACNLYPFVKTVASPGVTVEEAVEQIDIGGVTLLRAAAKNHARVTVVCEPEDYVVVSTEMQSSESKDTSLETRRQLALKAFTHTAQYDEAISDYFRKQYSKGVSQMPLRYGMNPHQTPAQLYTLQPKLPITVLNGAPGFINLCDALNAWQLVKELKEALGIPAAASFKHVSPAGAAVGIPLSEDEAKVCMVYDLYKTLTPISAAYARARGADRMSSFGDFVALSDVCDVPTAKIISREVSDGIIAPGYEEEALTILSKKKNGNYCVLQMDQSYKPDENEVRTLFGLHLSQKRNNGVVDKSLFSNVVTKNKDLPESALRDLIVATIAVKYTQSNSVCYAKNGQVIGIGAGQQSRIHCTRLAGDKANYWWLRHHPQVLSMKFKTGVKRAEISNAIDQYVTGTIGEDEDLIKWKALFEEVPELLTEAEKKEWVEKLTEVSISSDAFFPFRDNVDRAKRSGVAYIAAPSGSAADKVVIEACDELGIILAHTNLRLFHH
IC50 [nM],AICARFT inhibition in enzyme assay (in words),SMILES
29.1,inhibit AICARFT,"O=c1[nH]ccc2cc(F)c(NS(=O)(=O)c3ccc([C@@H]4CC[C@@H](O)C4)s3)cc12 (single isomer, unassigned) [Example 46]"
< 5.08,inhibit AICARFT,"CCC1(C)CC(c2ccc(S(=O)(=O)Nc3cc4c(=O)[nH]ccc4cc3F)s2)=CNC1=O (single isomer, unassigned; isomer 1) [Example 84, 5-(5-Ethyl-5-methyl-6-oxo-1,4,5,6-tetrahydropyridin-3-yl)-N-(6-fluoro-1-oxo-1,2-dihydroisoquinolin-7-yl)thiophe2ne-2-sulfonamide, Isomer 1]"
–,inhibit AICARFT,"O=c1[nH]ccc2cc(F)c(NS(=O)(=O)c3ccc(N4CC[C@@H](O)C4)s3)cc12 [Example 1, N-(6-Fluoro-1-oxo-1,2-dihydroisoquinolin-7-yl)-5-[(3R)-3-hydroxypyrrolidin-1-yl]thiophene-2-sulfonamide]"
< 5.08,inhibit AICARFT,"CC1(C)CC(c2ccc(S(=O)(=O)Nc3cc4c(=O)[nH]ccc4cc3F)s2)=CNC1=O [Example 81, 5-(5,5-Dimethyl-6-oxo-1,4,5,6-tetrahydropyridin-3-yl)-N-(6-fluoro-1-oxo-1,2-dihydroisoquinolin-7-yl)thiophene-2-sulfonamide]"

SMILES,IC50 [nM],AICARFT inhibition in enzyme assay (in words)
"O=c1[nH]ccc2cc(F)c(NS(=O)(=O)c3ccc(N4C[C@@H](O)[C@@H](F)C4)s3)cc12 (single isomer, unassigned) [Example 33]",7.75,inhibit AICARFT
"O=c1[nH]ccc2cc(F)c(NS(=O)(=O)c3ccc(N4C[C@@H](O)C(F)(F)C4)s3)cc12 [Example 41, 5-[(4R)-3,3-difluoro-4-hydroxypyrrolidin-1-yl]-N-(6-fluoro-1-oxo-1,2-dihydroisoquinolin-7-yl)thiophene-2-sulfonamide]",10.6,inhibit AICARFT

# — patent US9776992B2, “1-oxo-1,2-dihydroisoquinolin-7-yl-(5-substituted-thiophen-2-yl)-sulfonamide compounds, formulations containing those compounds, and their use as AICARFT inhibitors in the treatment of cancers” (Eli Lilly and Company, priority 2014, dated 2017)
